Laboratory results as given in article PMC5887109, “Unravelling the Molecular Determinants of Bee Sensitivity to Neonicotinoid Insecticides” (Current Biology, 2018).

What was measured:
honeybees = settings: depends on route of exposure; cited from earlier work
CYP9Q2 = target: T1, CYP9Q2 (Apis mellifera, UniProt A0A7M7R6F2); experiment: in vitro; settings: for metabolism by the recombinant P450 (in words): hydroxylation (thiacloprid, imidacloprid) or N-desmethylation (acetamiprid)
T1 sequence (A0A7M7R6F2 1-532): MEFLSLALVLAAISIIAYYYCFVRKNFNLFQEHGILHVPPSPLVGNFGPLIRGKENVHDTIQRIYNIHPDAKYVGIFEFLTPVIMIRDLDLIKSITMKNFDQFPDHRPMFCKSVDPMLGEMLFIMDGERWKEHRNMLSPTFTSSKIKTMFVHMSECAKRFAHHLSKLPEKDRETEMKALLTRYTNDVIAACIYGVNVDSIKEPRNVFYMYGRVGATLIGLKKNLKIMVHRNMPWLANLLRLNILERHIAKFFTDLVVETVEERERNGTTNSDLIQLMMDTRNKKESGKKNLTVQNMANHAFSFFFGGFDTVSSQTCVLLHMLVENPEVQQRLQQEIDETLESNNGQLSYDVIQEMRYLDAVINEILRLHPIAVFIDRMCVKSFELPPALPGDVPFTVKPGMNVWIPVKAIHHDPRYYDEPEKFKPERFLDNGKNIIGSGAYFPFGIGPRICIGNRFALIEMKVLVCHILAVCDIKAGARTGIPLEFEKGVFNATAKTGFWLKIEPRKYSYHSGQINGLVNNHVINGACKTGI
T1 sequence (Q07994 1-671 partner): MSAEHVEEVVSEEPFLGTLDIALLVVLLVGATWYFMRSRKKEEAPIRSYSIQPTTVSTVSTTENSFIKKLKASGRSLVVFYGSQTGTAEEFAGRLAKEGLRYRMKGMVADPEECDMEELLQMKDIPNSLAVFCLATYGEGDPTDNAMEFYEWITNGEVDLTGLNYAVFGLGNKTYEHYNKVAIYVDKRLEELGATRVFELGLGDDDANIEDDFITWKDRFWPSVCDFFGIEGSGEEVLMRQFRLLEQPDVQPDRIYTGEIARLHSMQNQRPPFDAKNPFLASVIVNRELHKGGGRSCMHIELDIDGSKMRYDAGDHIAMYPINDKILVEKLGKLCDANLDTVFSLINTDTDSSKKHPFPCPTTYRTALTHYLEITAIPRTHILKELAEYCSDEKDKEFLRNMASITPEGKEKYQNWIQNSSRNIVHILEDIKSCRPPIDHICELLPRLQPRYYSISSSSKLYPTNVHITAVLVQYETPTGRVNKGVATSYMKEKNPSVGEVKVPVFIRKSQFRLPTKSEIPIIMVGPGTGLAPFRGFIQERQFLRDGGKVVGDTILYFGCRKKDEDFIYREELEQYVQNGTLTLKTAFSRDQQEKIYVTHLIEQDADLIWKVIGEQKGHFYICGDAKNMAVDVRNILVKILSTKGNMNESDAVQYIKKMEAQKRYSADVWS
Text: All bee P450 (see Table S3 for accession numbers) and house fly NADPH-dependent cytochrome P450 reductase (CPR) (GenBank accession number Q07994) genes were obtained by gene synthesis (Geneart, CA, USA) and inserted into the pDEST8 expression vector (Invitrogen). Codon optimization of all bee genes was used to optimize expression in lepidopteran cell lines. The PFastbac1 vector with no inserted DNA was used to produce a control virus. The recombinant baculovirus DNA was constructed and transfected into Trichoplusia ni (High five cells, Thermo Fisher) using the Bac-to-Bac baculovirus expression system (Invitrogen) according to the manufacturer’s instructions. The titer of the recombinant virus was determined following protocols of the supplier. High Five cells grown to a density of 2 × 10^6 cells ml^-1 were co-infected with recombinant baculoviruses containing each bee P450 and CPR with a range of MOI (multiplicity of infection) ratios to identify the optimal conditions. Control cells were co-infected with the baculovirus containing vector with no insert (ctrl-virus) and the recombinant baculovirus expressing CPR using the same MOI ratios. Ferric citrate and δ-aminolevulinic acid hydrochloride were added to a final concentration of 0.1 mM at the time of infection and 24 h after infection to compensate the low levels of endogenous heme in the insect cells. After 48 h, cells were harvested, washed with PBS, and microsomes of the membrane fraction prepared according to standard procedures and stored at −80°C [31]. Briefly, pellets were homogenized for 30 s in 0.1M Na/K-phosphate buffer, pH 7.4 containing 1mM EDTA and DTT and 200mM sucrose using a Fastprep (MP Biomedicals), filtered through miracloth and centrifuging for 10 min at 680 g at 4°C. The supernatant was then centrifuged for 1 h at 100,000 g at 4°C, with the pellet subsequently resuspended in 0.1M Na/K-phosphate buffer, pH 7.6 containing 1mM EDTA and DTT and 10% glycerol using a Dounce tissue grinder. P450 expression and functionality was estimated by measuring CO-difference spectra in reduced samples using a Specord 200 Plus Spectrophotometer (Analytik Jena) and scanning from 500 nm to 400 nm. The protein content of samples was determined using Bradford reagent (Sigma) and bovine serum albumin (BSA) as a reference.
The total assay volume was 200 μL using three replicates for each data point. Microsomes incubated without NADPH served as a control. The assay was stopped by the addition of ice-cold acetonitrile (to 80% final concentration), centrifuged for 10 min at 3000 g and the supernatant subsequently analyzed by tandem mass spectrometry as described previously. For the chromatography on a Waters Acquity HSS T3 column (2.1x50mm, 1.8μm), acetonitrile/water/0.1% formic acid was used as the eluent in gradient mode. […] The peak integrals were calibrated externally against a standard calibration curve. […] Substrate turnover from two independent reactions were plotted versus controls and Michaelis-Menten kinetics determined using GraphPad Prism version 7 (GraphPad Software, CA, USA).

Compound | EPA toxicity category (honeybees) | metabolism by the recombinant P450 (in words) (CYP9Q2) | Km at 2 h (CYP9Q2; Apis mellifera) | Vmax, thiacloprid hydroxylation (CYP9Q2; apparent value, mean ± SD (n=3), decimal commas)
O=[N+]([O-])NC1=NCCN1Cc1ccc(Cl)nc1 [imidacloprid] | highly toxic | much lower efficiency than exhibited for thiacloprid | – | –
N#C/N=C1\SCCN1Cc1ccc(Cl)nc1 [thiacloprid] | slightly toxic” or “practically non-toxic | weak activity | 5.65 µM | 44,31±1,01 pmol min-1 mg-1
